Measurements as given in the supplement of paper PMC10307832.

Key:
Assay in all cases: relative viability (nuclei count vs DMSO), 5 days (fraction); higher = more cells survive
ChaGo-K-1 = system: ChaGo-K-1
In short: (§1)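 Relative viability equals treated-well nuclei counts divided by vehicle-well nuclei counts. Counts came from 4× images of lung cancer cell lines grown in 1536-well plates for 5 days after pin-tool dosing on the day after seeding. Dosing used one drug alone or a fixed anchor-drug dose plus five library-drug doses (not always all listed) in √10 steps, and values are medians of duplicate plates.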

NCI-H1648 = system: NCI-H1648
In short: as §1

IA-LM = system: IA-LM
In short: as §1

NCI-H1703 = system: NCI-H1703
In short: as §1

SMILES | relative viability (ChaGo-K-1; first compound 0.04 µM) | relative viability (ChaGo-K-1; first compound 0.1265 µM) | relative viability (ChaGo-K-1; first compound 0.4 µM) | relative viability (ChaGo-K-1; first compound 1.265 µM) | relative viability (ChaGo-K-1; first compound 4 µM) | relative viability (NCI-H1648; first compound 0.04 µM) | relative viability (NCI-H1648; first compound 0.1265 µM) | relative viability (NCI-H1648; first compound 0.4 µM) | relative viability (NCI-H1648; first compound 1.265 µM) | relative viability (NCI-H1648; first compound 4 µM) | relative viability (IA-LM; first compound 0.04 µM) | relative viability (IA-LM; first compound 0.1265 µM) | relative viability (IA-LM; first compound 0.4 µM) | relative viability (IA-LM; first compound 1.265 µM) | relative viability (IA-LM; first compound 4 µM) | relative viability (ChaGo-K-1; first compound 0.01 µM) | relative viability (ChaGo-K-1; first compound 0.03162 µM) | relative viability (ChaGo-K-1; first compound 0.3162 µM) | relative viability (IA-LM; first compound 0.01 µM) | relative viability (IA-LM; first compound 0.03162 µM) | relative viability (IA-LM; first compound 0.3162 µM) | relative viability (NCI-H1648; first compound 0.01 µM) | relative viability (NCI-H1648; first compound 0.03162 µM) | relative viability (NCI-H1648; first compound 0.3162 µM) | relative viability (NCI-H1703; first compound 0.04 µM) | relative viability (NCI-H1703; first compound 0.1265 µM) | relative viability (NCI-H1703; first compound 0.4 µM) | relative viability (NCI-H1703; first compound 4 µM)
Clc1ccc(Nc2nnc(Cc3ccncc3)c3ccccc23)cc1 [Vatalanib] + Nc1nc2[nH]cc(CCc3ccc(C(=O)N[C@@H](CCC(=O)O)C(=O)O)cc3)c2c(=O)[nH]1 [Pemetrexed] (partner 0.2 µM) | 0.263 | 0.294 | 0.265 | 0.258 | 0.26 | 0.67 | 0.674 | 0.691 | 0.741 | 0.718 | – | – | – | – | – | – | – | – | – | – | – | – | – | – | – | – | – | –
Clc1ccc(Nc2nnc(Cc3ccncc3)c3ccccc23)cc1 [Vatalanib] + O=C(CCCCCCC(=O)Nc1ccccc1)NO [Vorinostat] (partner 1 µM) | 0.787 | 0.758 | 0.848 | 0.766 | 0.788 | 0.32 | 0.644 | 0.562 | 0.42 | 0.444 | 0.952 | 1.24 | 0.895 | 0.99 | 0.976 | – | – | – | – | – | – | – | – | – | – | – | – | –
CC(C)Oc1cc(Nc2nc(N[C@@H](C)c3ccc(F)cn3)ncc2Cl)n[nH]1 [AZ23] + O=C(CCCCCCC(=O)Nc1ccccc1)NO [Vorinostat] (partner 1 µM) | – | – | – | – | – | – | – | – | – | – | – | – | – | – | – | 0.936 | 0.798 | 0.82 | 0.895 | 1.05 | 1.06 | 0.373 | 0.567 | 0.316 | – | – | – | –
Clc1ccc(Nc2nnc(Cc3ccncc3)c3ccccc23)cc1 [Vatalanib] + NC(=O)Nc1cc(-c2cccc(F)c2)sc1C(=O)N[C@H]1CCCNC1 [AZD7762] (partner 0.2 µM) | 0.941 | 0.845 | 0.88 | 0.865 | 0.876 | 0.528 | 0.632 | 0.665 | 0.655 | 0.735 | – | – | – | – | – | – | – | – | – | – | – | – | – | – | 0.128 | 0.14 | 0.126 | 0.109
C[C@@H]1CN(CC(=O)Nc2ccc3c(c2)Cc2cccc(-c4cc(=O)cc(N5CCOCC5)o4)c2S3)C[C@H](C)O1 + CC(=O)c1c(C)c2cnc(Nc3ccc(N4CCNCC4)cn3)nc2n(C2CCCC2)c1=O [Palbociclib] (partner 0.5 µM) | 0.902 | 0.924 | 0.925 | – | 0.898 | 0.265 | 0.322 | 0.373 | – | 0.26 | – | – | – | – | – | – | – | – | – | – | – | – | – | – | – | – | – | –
CC(C)Oc1cc(Nc2nc(N[C@@H](C)c3ccc(F)cn3)ncc2Cl)n[nH]1 [AZ23] + CC(=O)Nc1cccc(-n2c(=O)n(C3CC3)c(=O)c3c(Nc4ccc(I)cc4F)n(C)c(=O)c(C)c32)c1 [Trametinib] (partner 0.02 µM) | – | – | – | – | – | – | – | – | – | – | – | – | – | – | – | 0.855 | 0.921 | 0.979 | – | – | – | 0.374 | 0.427 | 0.314 | – | – | – | –
COc1cc(N2CCC(C(N)=O)CC2)ccc1Nc1nc(N)c(Cl)c(Nc2ccccc2S(=O)(=O)C(C)C)n1 [HG-5-88-01] + Nc1nc2[nH]cc(CCc3ccc(C(=O)N[C@@H](CCC(=O)O)C(=O)O)cc3)c2c(=O)[nH]1 [Pemetrexed] (partner 0.2 µM) | 0.262 | 0.271 | 0.24 | 0.266 | 0.258 | 0.772 | 0.719 | 0.605 | 0.596 | 0.562 | – | – | – | – | – | – | – | – | – | – | – | – | – | – | – | – | – | –
COc1cc(N2CCC(C(N)=O)CC2)ccc1Nc1nc(N)c(Cl)c(Nc2ccccc2S(=O)(=O)C(C)C)n1 [HG-5-88-01] + O=C(CCCCCCC(=O)Nc1ccccc1)NO [Vorinostat] (partner 1 µM) | 0.75 | 0.71 | 0.737 | 0.786 | 0.589 | 0.616 | 0.307 | 0.626 | 0.308 | 0.301 | 1.03 | 1.01 | 0.776 | 0.825 | 0.899 | – | – | – | – | – | – | – | – | – | – | – | – | –
C[C@@H]1CN(CC(=O)Nc2ccc3c(c2)Cc2cccc(-c4cc(=O)cc(N5CCOCC5)o4)c2S3)C[C@H](C)O1 + NC(=O)Nc1cc(-c2cccc(F)c2)sc1C(=O)N[C@H]1CCCNC1 [AZD7762] (partner 0.2 µM) | 0.836 | 0.855 | 0.847 | – | 0.799 | 0.519 | 0.574 | 0.961 | – | 0.604 | – | – | – | – | – | – | – | – | – | – | – | – | – | – | 0.137 | 0.11 | 0.141 | 0.117
C[C@@H]1CN(CC(=O)Nc2ccc3c(c2)Cc2cccc(-c4cc(=O)cc(N5CCOCC5)o4)c2S3)C[C@H](C)O1 + CC(=O)Nc1cccc(-n2c(=O)n(C3CC3)c(=O)c3c(Nc4ccc(I)cc4F)n(C)c(=O)c(C)c32)c1 [Trametinib] (partner 0.02 µM) | 0.868 | 0.859 | 0.879 | – | 0.871 | 0.484 | 0.435 | 0.474 | – | 0.527 | – | – | – | – | – | – | – | – | – | – | – | – | – | – | – | – | – | –
Clc1ccc(Nc2nnc(Cc3ccncc3)c3ccccc23)cc1 [Vatalanib] + CC(=O)c1c(C)c2cnc(Nc3ccc(N4CCNCC4)cn3)nc2n(C2CCCC2)c1=O [Palbociclib] (partner 0.5 µM) | 0.998 | 0.885 | 0.945 | 0.969 | 0.961 | 0.268 | 0.307 | 0.26 | 0.233 | 0.302 | – | – | – | – | – | – | – | – | – | – | – | – | – | – | – | – | – | –
Clc1ccc(Nc2nnc(Cc3ccncc3)c3ccccc23)cc1 [Vatalanib] + CC(=O)Nc1cccc(-n2c(=O)n(C3CC3)c(=O)c3c(Nc4ccc(I)cc4F)n(C)c(=O)c(C)c32)c1 [Trametinib] (partner 0.02 µM) | 0.86 | 0.823 | 0.928 | 0.877 | 0.881 | 0.407 | 0.463 | 0.577 | 0.467 | 0.578 | – | – | – | – | – | – | – | – | – | – | – | – | – | – | – | – | – | –
